Laboratory results taken from US10344060B2 (priority 2013, dated 2019).

What was measured:
[1] = biological target: hNav1.5 (Homo sapiens, UniProt Q14524); assay: cell-based; conditions: Table 12; ratio of PX tonic IC50 values
[2] = biological target: hNav1.4 (Homo sapiens, UniProt P35499); assay: cell-based; type: cell-based; conditions: Table 12; ratio of PX tonic IC50 values
Sequence of hNav1.4 (P35499 whole entry): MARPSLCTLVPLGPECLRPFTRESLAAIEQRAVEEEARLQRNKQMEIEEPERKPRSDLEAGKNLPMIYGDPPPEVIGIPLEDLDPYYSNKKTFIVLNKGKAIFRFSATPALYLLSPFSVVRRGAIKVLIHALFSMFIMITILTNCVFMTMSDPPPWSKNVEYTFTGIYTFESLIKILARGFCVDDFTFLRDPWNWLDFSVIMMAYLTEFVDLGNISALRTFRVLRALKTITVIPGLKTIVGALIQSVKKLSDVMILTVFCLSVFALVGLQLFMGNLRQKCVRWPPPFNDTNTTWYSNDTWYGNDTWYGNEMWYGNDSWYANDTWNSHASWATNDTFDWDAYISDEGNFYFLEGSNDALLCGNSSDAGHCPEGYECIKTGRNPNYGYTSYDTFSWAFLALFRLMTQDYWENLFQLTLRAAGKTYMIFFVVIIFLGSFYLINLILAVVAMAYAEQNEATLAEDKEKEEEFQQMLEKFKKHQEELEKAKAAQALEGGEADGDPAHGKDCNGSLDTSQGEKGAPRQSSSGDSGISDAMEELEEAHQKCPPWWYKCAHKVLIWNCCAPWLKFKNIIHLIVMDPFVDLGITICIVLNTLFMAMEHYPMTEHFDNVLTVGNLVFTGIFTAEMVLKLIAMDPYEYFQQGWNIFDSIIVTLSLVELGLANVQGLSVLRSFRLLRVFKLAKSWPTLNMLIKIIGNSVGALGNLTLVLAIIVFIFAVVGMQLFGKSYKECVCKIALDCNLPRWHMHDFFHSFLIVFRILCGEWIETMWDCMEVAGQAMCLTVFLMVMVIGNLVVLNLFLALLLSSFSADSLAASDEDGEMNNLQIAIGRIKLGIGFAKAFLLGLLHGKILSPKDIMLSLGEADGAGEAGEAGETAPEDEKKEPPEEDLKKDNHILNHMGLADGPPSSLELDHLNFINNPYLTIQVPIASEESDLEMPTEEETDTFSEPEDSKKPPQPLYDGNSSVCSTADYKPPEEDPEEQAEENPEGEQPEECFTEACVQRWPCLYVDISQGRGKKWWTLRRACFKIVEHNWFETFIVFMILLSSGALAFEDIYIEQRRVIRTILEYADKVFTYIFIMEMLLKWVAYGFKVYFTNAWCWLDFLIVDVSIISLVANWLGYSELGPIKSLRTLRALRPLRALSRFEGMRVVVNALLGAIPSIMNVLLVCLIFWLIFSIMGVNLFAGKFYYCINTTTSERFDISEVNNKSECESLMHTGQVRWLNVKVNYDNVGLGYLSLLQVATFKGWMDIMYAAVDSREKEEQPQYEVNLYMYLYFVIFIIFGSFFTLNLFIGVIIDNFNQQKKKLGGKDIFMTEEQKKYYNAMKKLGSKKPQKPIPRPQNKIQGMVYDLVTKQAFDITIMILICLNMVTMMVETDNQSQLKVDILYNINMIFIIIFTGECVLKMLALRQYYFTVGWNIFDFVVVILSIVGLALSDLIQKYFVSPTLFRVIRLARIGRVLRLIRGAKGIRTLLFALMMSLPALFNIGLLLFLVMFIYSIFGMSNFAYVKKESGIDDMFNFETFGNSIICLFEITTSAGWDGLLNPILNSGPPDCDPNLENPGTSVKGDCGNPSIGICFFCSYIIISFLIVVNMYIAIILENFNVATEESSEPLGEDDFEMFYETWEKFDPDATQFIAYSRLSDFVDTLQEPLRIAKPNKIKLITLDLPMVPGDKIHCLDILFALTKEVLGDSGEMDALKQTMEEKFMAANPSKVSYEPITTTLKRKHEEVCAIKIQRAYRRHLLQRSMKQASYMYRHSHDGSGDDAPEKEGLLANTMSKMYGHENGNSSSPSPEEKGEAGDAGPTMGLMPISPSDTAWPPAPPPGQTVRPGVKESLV

Sequence of hNav1.5 (Q14524 whole entry): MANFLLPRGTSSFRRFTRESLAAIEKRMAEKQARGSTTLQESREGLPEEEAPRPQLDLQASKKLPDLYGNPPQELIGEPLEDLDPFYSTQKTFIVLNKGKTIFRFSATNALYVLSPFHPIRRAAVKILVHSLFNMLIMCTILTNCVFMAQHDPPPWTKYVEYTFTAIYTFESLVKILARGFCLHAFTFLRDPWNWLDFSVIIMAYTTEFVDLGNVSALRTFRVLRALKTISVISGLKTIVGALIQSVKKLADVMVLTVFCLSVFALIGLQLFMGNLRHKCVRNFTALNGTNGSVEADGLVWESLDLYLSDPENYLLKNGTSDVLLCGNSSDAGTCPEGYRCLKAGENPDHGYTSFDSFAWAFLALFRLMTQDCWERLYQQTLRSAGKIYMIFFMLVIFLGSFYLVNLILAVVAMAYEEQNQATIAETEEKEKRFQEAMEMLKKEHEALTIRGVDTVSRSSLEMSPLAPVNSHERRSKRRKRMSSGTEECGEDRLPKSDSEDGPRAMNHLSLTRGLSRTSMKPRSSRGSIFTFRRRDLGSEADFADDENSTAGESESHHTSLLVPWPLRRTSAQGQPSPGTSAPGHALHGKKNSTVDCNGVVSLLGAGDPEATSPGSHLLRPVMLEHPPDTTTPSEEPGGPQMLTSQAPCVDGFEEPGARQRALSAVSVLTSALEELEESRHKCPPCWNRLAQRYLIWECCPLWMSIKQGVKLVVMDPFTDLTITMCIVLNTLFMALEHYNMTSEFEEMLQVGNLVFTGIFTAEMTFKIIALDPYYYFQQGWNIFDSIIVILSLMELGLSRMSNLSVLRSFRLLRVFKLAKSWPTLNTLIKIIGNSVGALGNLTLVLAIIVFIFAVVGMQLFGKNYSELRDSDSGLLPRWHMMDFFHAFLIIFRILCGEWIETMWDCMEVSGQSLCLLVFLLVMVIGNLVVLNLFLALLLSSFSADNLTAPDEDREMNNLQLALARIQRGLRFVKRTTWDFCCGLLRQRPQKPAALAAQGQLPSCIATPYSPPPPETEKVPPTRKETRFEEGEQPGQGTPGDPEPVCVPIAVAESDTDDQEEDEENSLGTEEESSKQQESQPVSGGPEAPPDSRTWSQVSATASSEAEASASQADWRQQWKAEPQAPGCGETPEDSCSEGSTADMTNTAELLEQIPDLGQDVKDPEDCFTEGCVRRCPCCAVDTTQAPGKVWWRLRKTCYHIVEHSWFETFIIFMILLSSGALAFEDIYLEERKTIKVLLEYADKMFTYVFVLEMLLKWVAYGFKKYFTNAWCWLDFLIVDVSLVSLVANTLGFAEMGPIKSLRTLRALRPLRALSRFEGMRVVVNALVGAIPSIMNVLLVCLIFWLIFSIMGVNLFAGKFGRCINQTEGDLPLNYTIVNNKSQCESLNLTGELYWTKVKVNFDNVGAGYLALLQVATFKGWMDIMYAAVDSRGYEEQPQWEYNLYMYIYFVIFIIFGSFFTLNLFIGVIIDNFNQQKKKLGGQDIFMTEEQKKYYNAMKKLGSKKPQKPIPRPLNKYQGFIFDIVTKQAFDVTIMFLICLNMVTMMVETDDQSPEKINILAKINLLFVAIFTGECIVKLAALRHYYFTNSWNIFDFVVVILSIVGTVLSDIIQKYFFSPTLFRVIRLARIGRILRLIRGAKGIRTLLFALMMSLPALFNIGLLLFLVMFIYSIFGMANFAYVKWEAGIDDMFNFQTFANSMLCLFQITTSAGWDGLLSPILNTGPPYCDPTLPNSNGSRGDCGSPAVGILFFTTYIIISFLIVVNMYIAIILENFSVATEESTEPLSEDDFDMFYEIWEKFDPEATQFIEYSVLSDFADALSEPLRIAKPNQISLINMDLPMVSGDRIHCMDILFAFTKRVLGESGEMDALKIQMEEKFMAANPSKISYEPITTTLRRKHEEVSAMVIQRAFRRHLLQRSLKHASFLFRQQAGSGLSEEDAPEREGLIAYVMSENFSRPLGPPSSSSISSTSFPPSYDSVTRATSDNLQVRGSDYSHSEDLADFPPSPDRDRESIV

Row | Structure (SMILES) | Nav1.5/Nav1.7 [1] | Nav1.4/Nav1.7 [2]
1 | CCCC[C@@H]1NC(=O)[C@H](Cc2c[nH]c3ccccc23)NC(=O)[C@H](CCCCN)NC(=O)[C@H](CCC(N)=O)NC(=O)[C@@H](NC(=O)[C@H](Cc2ccc(O)cc2)NC(=O)[C@@H](N)CCN=[N+]=[N-])CSSC[C@@H]2NC(=O)[C@@H]3CSSC[C@@H](C(=O)N[C@@H](CCCNC(=N)N)C(=O)N[C@@H](CCCCN)C(=O)N[C@H](C(=O)N[C@@H](Cc4c[nH]c5ccccc45)C(N)=O)[C@@H](C)CC)NC(=O)[C@H](Cc4c[nH]c5ccccc45)NC(=O)[C@H](CC(C)C)NC(=O)[C@H](CCCCN)NC(=O)[C@H](CSSC[C@H](NC(=O)[C@H]([C@@H](C)O)NC(=O)[C@H](Cc4c[nH]c5ccccc45)NC1=O)C(=O)N[C@@H](CC(=O)O)C(=O)N[C@@H](CO)C(=O)N[C@@H](CCCCN)C(=O)N[C@@H](CCCNC(=N)N)C(=O)N[C@@H](C)C(=O)N3)NC(=O)[C@H](CCC(=O)O)NC(=O)[C@H](CC(C)C)NC(=O)CNC(=O)[C@H](CCC(=O)O)NC2=O [compound 308] | 3351 | 1068
2 | C#CC[C@H](N)C(=O)N[C@@H](Cc1ccc(O)cc1)C(=O)N[C@H]1CSSC[C@@H]2NC(=O)[C@@H]3CSSC[C@@H](C(=O)N[C@@H](CCCNC(=N)N)C(=O)N[C@@H](CCCCN)C(=O)N[C@H](C(=O)N[C@@H](Cc4c[nH]c5ccccc45)C(N)=O)[C@@H](C)CC)NC(=O)[C@H](Cc4c[nH]c5ccccc45)NC(=O)[C@H](CC(C)C)NC(=O)[C@H](CCCCN)NC(=O)[C@H](CSSC[C@H](NC(=O)[C@H]([C@@H](C)O)NC(=O)[C@H](Cc4c[nH]c5ccccc45)NC(=O)[C@H](CC(C)C)NC(=O)[C@H](Cc4c[nH]c5ccccc45)NC(=O)[C@H](CCCCN)NC(=O)[C@H](CCC(N)=O)NC1=O)C(=O)N[C@@H](CC(=O)O)C(=O)N[C@@H](CO)C(=O)N[C@@H](CCCCN)C(=O)N[C@@H](CCCNC(=N)N)C(=O)N[C@@H](C)C(=O)N3)NC(=O)[C@H](CCC(=O)O)NC(=O)[C@H](CC(C)C)NC(=O)CNC(=O)[C@H](CCC(=O)O)NC2=O [compound 299] | 2332 | 2069
3 | C#CC[C@H](N)C(=O)NCCOCCOCCOCCOCCC(=O)NCCCC[C@@H]1NC(=O)[C@@H]2CSSC[C@H](NC(=O)[C@H](Cc3ccc(O)cc3)NC(=O)[C@@H](N)CC#N)C(=O)N[C@@H](CCC(N)=O)C(=O)N[C@@H](CCCCN)C(=O)N[C@@H](Cc3c[nH]c4ccccc34)C(=O)N[C@@H](CCCC)C(=O)N[C@@H](Cc3c[nH]c4ccccc34)C(=O)N[C@@H]([C@@H](C)O)C(=O)N[C@H]3CSSC[C@H](NC(=O)[C@H](CCCNC(=N)N)NC(=O)[C@H](CC(C)C)NC(=O)CNC1=O)C(=O)N[C@@H](CCCCN)C(=O)N[C@@H](CC(C)C)C(=O)N[C@@H](Cc1c[nH]c4ccccc14)C(=O)N[C@H](C(=O)N[C@@H](CCCNC(=N)N)C(=O)N[C@@H](CCCCN)C(=O)N[C@H](C(=O)N[C@H](C(N)=O)[C@@H](C)CC)[C@@H](C)CC)CSSC[C@H](NC(=O)[C@H](C)NC(=O)[C@H](CCCNC(=N)N)NC(=O)[C@H](CCCCN)NC(=O)[C@H](CO)NC(=O)[C@H](CC(=O)O)NC3=O)C(=O)N2 [compound 385] | 0 | 0
4 | C#CC[C@@H]1NC(=O)[C@@H]2CSSC[C@H](NC(=O)[C@@H](N)Cc3ccc(O)cc3)C(=O)N[C@@H](CCC(N)=O)C(=O)N[C@@H](CCCCN)C(=O)N[C@@H](Cc3c[nH]c4ccccc34)C(=O)N[C@@H](CCCC)C(=O)N[C@@H](Cc3c[nH]c4ccccc34)C(=O)N[C@@H]([C@@H](C)O)C(=O)N[C@H]3CSSC[C@H](NC(=O)[C@H](CCCNC(=N)N)NC(=O)[C@H](CC(C)C)NC(=O)CNC1=O)C(=O)N[C@@H](CCCCN)C(=O)N[C@@H](CC(C)C)C(=O)N[C@@H](Cc1c[nH]c4ccccc14)C(=O)N[C@H](C(=O)N[C@@H](CCCNC(=N)N)C(=O)N[C@@H](CCCCN)C(=O)N[C@@H](CCC(=O)O)C(=O)N[C@H](C(N)=O)[C@@H](C)CC)CSSC[C@H](NC(=O)[C@H](C)NC(=O)[C@H](CCCNC(=N)N)NC(=O)[C@H](CCCCN)NC(=O)[C@H](CO)NC(=O)[C@H](CC(=O)O)NC3=O)C(=O)N2 [compound 332] | 849 | 34
5 | C#CC[C@H](N)C(=O)NCCOCCOCCOCCOCCC(=O)NCCCC[C@@H]1NC(=O)[C@@H]2CSSC[C@H](NC(=O)[C@@H](N)Cc3ccc(O)cc3)C(=O)N[C@@H](CCC(N)=O)C(=O)N[C@@H](CCCCN)C(=O)N[C@@H](Cc3c[nH]c4ccccc34)C(=O)N[C@@H](CCCC)C(=O)N[C@@H](Cc3c[nH]c4ccccc34)C(=O)N[C@@H]([C@@H](C)O)C(=O)N[C@H]3CSSC[C@H](NC(=O)[C@H](CCC(=O)O)NC(=O)[C@H](CC(C)C)NC(=O)CNC1=O)C(=O)N[C@@H](CCCCN)C(=O)N[C@@H](CC(C)C)C(=O)N[C@@H](Cc1c[nH]c4ccccc14)C(=O)N[C@H](C(=O)N[C@@H](CCCNC(=N)N)C(=O)N[C@@H](CCCCN)C(=O)N[C@H](C(=O)N[C@@H](Cc1c[nH]c4ccccc14)C(N)=O)[C@@H](C)CC)CSSC[C@H](NC(=O)[C@H](C)NC(=O)[C@H](CCCNC(=N)N)NC(=O)[C@H](CCCCN)NC(=O)[C@H](CO)NC(=O)[C@H](CC(=O)O)NC3=O)C(=O)N2 [compound 293] | 1 | 1
6 | C#CC[C@@H]1NC(=O)[C@H](CCCNC(=N)N)NC(=O)[C@H](CCCCN)NC(=O)[C@H](CO)NC(=O)[C@H](CC(=O)O)NC(=O)[C@@H]2CSSC[C@@H]3NC(=O)[C@H](CCC(=O)O)NC(=O)[C@H](CC(C)C)NC(=O)CNC(=O)[C@H](CCC(=O)O)NC(=O)[C@H](CSSC[C@H](NC(=O)[C@@H](N)Cc4ccc(O)cc4)C(=O)N[C@@H](CCC(N)=O)C(=O)N[C@@H](CCCCN)C(=O)N[C@@H](Cc4c[nH]c5ccccc45)C(=O)N[C@@H](CCCC)C(=O)N[C@@H](Cc4c[nH]c5ccccc45)C(=O)N[C@@H]([C@@H](C)O)C(=O)N2)NC(=O)[C@H](CSSC[C@@H](C(=O)N[C@@H](CCCNC(=N)N)C(=O)N[C@@H](CCCCN)C(=O)N[C@@H](Cc2ccc(O)cc2)C(=O)N[C@H](C(N)=O)[C@@H](C)CC)NC(=O)[C@H](Cc2c[nH]c4ccccc24)NC(=O)[C@H](CC(C)C)NC(=O)[C@H](CCCCN)NC3=O)NC1=O [compound 316] | 2099 | 402
7 | C#CC[C@H](N)C(=O)N[C@H]1CSSC[C@@H]2NC(=O)[C@@H]3CSSC[C@@H](C(=O)N[C@@H](CCCNC(=N)N)C(=O)N[C@@H](CCCCN)C(=O)N[C@H](C(=O)N[C@H](C(N)=O)[C@@H](C)CC)[C@@H](C)CC)NC(=O)[C@H](Cc4c[nH]c5ccccc45)NC(=O)[C@H](CC(C)C)NC(=O)[C@H](CCCCN)NC(=O)[C@H](CSSC[C@H](NC(=O)[C@H]([C@@H](C)O)NC(=O)[C@H](Cc4c[nH]c5ccccc45)NC(=O)[C@H](CCCC)NC(=O)[C@H](Cc4c[nH]c5ccccc45)NC(=O)[C@H](CCCCN)NC(=O)[C@H](CCC(N)=O)NC1=O)C(=O)N[C@@H](CC(=O)O)C(=O)N[C@@H](CO)C(=O)N[C@@H](CCCCN)C(=O)N[C@@H](CCCNC(=N)N)C(=O)N[C@@H](C)C(=O)N3)NC(=O)[C@H](CCC(=O)O)NC(=O)[C@H](CC(C)C)NC(=O)CNC(=O)[C@H](CCC(=O)O)NC2=O [compound 343] | 1011 | 300
8 | C#CC[C@@H]1NC(=O)[C@@H]2CSSC[C@H](NC(=O)[C@@H](N)Cc3ccc(O)cc3)C(=O)N[C@@H](CCC(N)=O)C(=O)N[C@@H](CCCCN)C(=O)N[C@@H](Cc3c[nH]c4ccccc34)C(=O)N[C@@H](CCCC)C(=O)N[C@@H](Cc3c[nH]c4ccccc34)C(=O)N[C@@H]([C@@H](C)O)C(=O)N[C@H]3CSSC[C@H](NC(=O)[C@H](CCC(=O)O)NC(=O)[C@H](CC(C)C)NC(=O)CNC1=O)C(=O)N[C@@H](CCCCN)C(=O)N[C@@H](CC(C)C)C(=O)N[C@@H](Cc1c[nH]c4ccccc14)C(=O)N[C@H](C(=O)N[C@@H](CCCNC(=N)N)C(=O)N[C@@H](CCCCN)C(=O)N[C@H](C(=O)N[C@H](C(N)=O)[C@@H](C)CC)[C@@H](C)CC)CSSC[C@H](NC(=O)[C@H](C)NC(=O)[C@H](CCCNC(=N)N)NC(=O)[C@H](CCCCN)NC(=O)[C@H](CO)NC(=O)[C@H](CC(=O)O)NC3=O)C(=O)N2 [compound 346] | 102 | 29
9 | C#CC[C@@H]1NC(=O)[C@@H]2CSSC[C@H](NC(=O)[C@@H](N)Cc3ccc(O)cc3)C(=O)N[C@@H](CCC(N)=O)C(=O)N[C@@H](CCCCN)C(=O)N[C@@H](Cc3c[nH]c4ccccc34)C(=O)N[C@@H](CCCC)C(=O)N[C@@H](Cc3c[nH]c4ccccc34)C(=O)N[C@@H]([C@@H](C)O)C(=O)N[C@H]3CSSC[C@H](NC(=O)[C@H](CCC(=O)O)NC(=O)[C@H](CC(C)C)NC(=O)CNC1=O)C(=O)N[C@@H](CCCCN)C(=O)N[C@@H](CC(C)C)C(=O)N[C@@H](Cc1c[nH]c4ccccc14)C(=O)N[C@H](C(=O)N[C@@H](CCCNC(=N)N)C(=O)N[C@@H](CCCCN)C(=O)N[C@@H](Cc1ccc(O)cc1)C(=O)N[C@H](C(N)=O)[C@@H](C)CC)CSSC[C@H](NC(=O)[C@H](C)NC(=O)[C@H](CCCNC(=N)N)NC(=O)[C@H](CCCCN)NC(=O)[C@H](CO)NC(=O)[C@H](CC(=O)O)NC3=O)C(=O)N2 [compound 317] | 927 | 161
10 | C#CC[C@@H]1NC(=O)[C@H](CCCNC(=N)N)NC(=O)[C@H](CCCCN)NC(=O)[C@H](CO)NC(=O)[C@H](CC(=O)O)NC(=O)[C@@H]2CSSC[C@@H]3NC(=O)[C@H](CCCNC(=N)N)NC(=O)[C@H](CC(C)C)NC(=O)CNC(=O)[C@H](CCC(=O)O)NC(=O)[C@H](CSSC[C@H](NC(=O)[C@@H](N)Cc4ccc(O)cc4)C(=O)N[C@@H](CCC(N)=O)C(=O)N[C@@H](CCCCN)C(=O)N[C@@H](Cc4c[nH]c5ccccc45)C(=O)N[C@@H](CCCC)C(=O)N[C@@H](Cc4c[nH]c5ccccc45)C(=O)N[C@@H]([C@@H](C)O)C(=O)N2)NC(=O)[C@H](CSSC[C@@H](C(=O)N[C@@H](CCCNC(=N)N)C(=O)N[C@@H](CCCCN)C(=O)N[C@@H](CCC(=O)O)C(=O)N[C@H](C(N)=O)[C@@H](C)CC)NC(=O)[C@H](Cc2c[nH]c4ccccc24)NC(=O)[C@H](CC(C)C)NC(=O)[C@H](CCCCN)NC3=O)NC1=O [compound 331] | 7119 | 213
